This passage reports IC50 results from ChEMBL document CHEMBL1141520, “New cytotoxic saturated and unsaturated cyclohexanones from Anthemis maritima” (Bioorg Med Chem Lett, 2008).

Assay type in all cases: functional, cell-based
In one assay the test system is Jurkat. The assay is described as follows: Antiproliferative activity against human Jurkat T cells after 72 hrs by WST1 based assay. A general note: Formazan colour is commonly taken as a measure of viable cells.
The subject of the next assay is U-937. The assay is described as follows: Antiproliferative activity against human U937 cells after 72 hrs by WST1 based assay. The note with it: U-937, 72 h.
In a further assay the test system is MCF7. Put plainly: Antiproliferative activity against human MCF7 cells after 72 hrs by WST1 based assay. The note with it: MCF7, 72 h.
The next assay deals with HL-60. Put plainly: Antiproliferative activity against human HL60 cells after 72 hrs by WST1 based assay. The note with it: HL-60, 72 h.
For a further assay, the system named is HCT-116. The assay is described as follows: Antiproliferative activity against human HCT116 cells after 72 hrs by WST1 based assay. The following applies: HCT-116, 72 h.
In the next assay the test system is Caco-2. Put plainly: Antiproliferative activity against human CaCo2 cells after 72 hrs by WST1 based assay. The note with it: Caco-2, 72 h.

Usually IC50 stands for the concentration that inhibits the measured activity by half. A lower IC50 goes with inhibition by little substance. With `C=C1C(=O)O[C@@H]2C3O[C@]3(C)CC/C=C(\C)CC[C@@H]12` (stereo partly drawn), the IC50 amounted to 1.9 µM in the assay with Jurkat; 2.2 µM in the assay with U-937; 9.4 µM in the assay on MCF7; 0.9 µM in the assay with HL-60; 5.9 µM with HCT-116; 10.4 µM with Caco-2.

For the compound `CC(C)=CCCC(C)(O)[C@H]1CC(=O)C(CO)=C[C@@H]1O` (stereo partly drawn) [ANTHEMINONE A], the half-inhibitory concentration (IC50) in the assay with Jurkat is 9 µM; in the assay on U-937, 6.2 µM; with MCF7 it was 21 µM; in the assay with HL-60 it was 7.6 µM; with HCT-116 it was 15 µM; in the assay on Caco-2, 11 µM.

For the compound `C=C1C(=O)C[C@@H](C(C)(O)CCC=C(C)C)[C@H](O)[C@H]1O` (stereo partly drawn) [ANTHEMINONE C], the IC50 in the assay on Jurkat came to 8.4 µM; in the assay with U-937 it was 7.4 µM; with MCF7, 15 µM; with HL-60, 3.2 µM; in the assay with HCT-116 it was 19 µM; in the assay on Caco-2, 9.4 µM.
